In patent US7101878B1 (Agouron Pharmaceuticals, Inc., priority 1998, dated 2006):

The molecules below were run against T1, mouse GnRH receptor (Mus musculus, UniProt Q01776) (assay: Radioligand binding, 125I-GnRH-A, 293 cells expressing mouse GnRH receptors). Details: 10 uM; read-out: % Inhib. @ 10 uM mGnRH.
T1 construct: expressed in transfected cells; host or cells: 293 cells
T1 sequence (Q01776 1-327): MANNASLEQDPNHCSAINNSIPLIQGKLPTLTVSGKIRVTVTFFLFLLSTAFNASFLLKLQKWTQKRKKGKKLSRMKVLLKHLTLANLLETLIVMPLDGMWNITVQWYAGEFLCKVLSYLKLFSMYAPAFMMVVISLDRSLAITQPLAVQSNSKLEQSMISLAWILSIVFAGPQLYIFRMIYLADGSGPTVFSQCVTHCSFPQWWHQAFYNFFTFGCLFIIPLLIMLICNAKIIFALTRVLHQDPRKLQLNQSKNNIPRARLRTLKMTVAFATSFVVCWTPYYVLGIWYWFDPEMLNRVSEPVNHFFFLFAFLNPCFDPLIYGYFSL
How it was run: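 Bound label captured on 0.1% polyethyleneimine-treated GF/C filters, washed three times with PBS, counted. IC50 derived; identical set-up for every species.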

inhibition at 10 µM [%]	SMILES
91	Cc1cc2c(cc1Cc1ccc(C(=O)N(CCN3CCOCC3)Cc3ccccc3)o1)C(C)(C)CCC2(C)C [drawing 1461]
97	Cc1cc2c(cc1Cc1ccc(C(=O)N3CCCC(C)C3)o1)C(C)(C)CCC2(C)C (stereo not shown)
100	Cc1cc2c(cc1Cc1ccc(C(=O)N(CCN3CCCC3)Cc3ccccc3)o1)C(C)(C)CCC2(C)C [drawing 1462]
70	Cc1cc2c(cc1Cc1ccc(C(=O)N3CCc4ccccc4C3)o1)C(C)(C)CCC2(C)C [drawing 1422]
91	CCCCCNC(=O)c1ccc(Cc2cc3c(cc2C)C(C)(C)CCC3(C)C)o1
95	Cc1cc2c(cc1Cc1ccc(C(=O)N(CCC#N)CC3CCCO3)o1)C(C)(C)CCC2(C)C (stereo not shown)
71	CCOC(=O)C1CN(C(=O)c2ccc(Cc3cc4c(cc3C)C(C)(C)CCC4(C)C)o2)CCC1=O (stereo not shown)
72	Cc1cc2c(cc1Cc1ccc(C(=O)NCC3CCCCC3)o1)C(C)(C)CCC2(C)C [drawing 1302]
99	Cc1cc2c(cc1Cc1ccc(C(=O)N(CCN3CCCC3)Cc3cccc(Oc4cccc(C(F)(F)F)c4)c3)o1)C(C)(C)CCC2(C)C
76	CCC(CC)NC(=O)c1ccc(Cc2cc3c(cc2C)C(C)(C)CCC3(C)C)o1 [drawing 1546]
101	Cc1cc2c(cc1Cc1ccc(C(=O)NC(CO)C(C)(C)C)o1)C(C)(C)CCC2(C)C (stereo not shown)
-23	COc1cc2c(cc1OC)C(c1cccc(Br)c1)N(C(=O)c1ccc(Cc3cc4c(cc3C)C(C)(C)CCC4(C)C)o1)CC2 (stereo not shown)
103	Cc1cc2c(cc1Cc1ccc(C(=O)N3CCN(CC(=O)N(C)c4ccccc4)CC3)o1)C(C)(C)CCC2(C)C

Same assay, conditions: 1 h, substrate remaining; 10 uM compound; closer to zero = closer to 100% inhibition; read-out: S%R 10 uM mGnRHR

remaining activity at 10 µM [%]	SMILES
28	Cc1cc2c(cc1Cc1ccc(C(=O)N3CCC4(CC3)C(=O)NCN4c3ccccc3)o1)C(C)(C)CCC2(C)C [Compound 649]
-1	COc1ccc(CCNC(=O)c2ccc(Cc3cc4c(cc3C)C(C)(C)CCC4(C)C)o2)cc1OC [Compound 489]
45	Cc1cc2c(cc1Cc1ccc(C(=O)NC(C)(CO)CO)o1)C(C)(C)CCC2(C)C [Compound 564]
-7	Cc1cc2c(cc1Cc1ccc(C(=O)NCC3CCCC(CNc4nccc(NCC5CCCO5)n4)C3)o1)C(C)(C)CCC2(C)C (stereo not shown) [Compound 492]
4	COc1cc(CNC(=O)c2ccc(Cc3cc4c(cc3C)C(C)(C)CCC4(C)C)o2)cc(OC)c1 [Compound 490]
43	Cc1cc2c(cc1Cc1ccc(C(=O)N(Cc3cccc4ccccc34)C3CCN(Cc4ccccc4)C3)o1)C(C)(C)CCC2(C)C (stereo not shown) [Compound 631]
58	Cc1cc2c(cc1Cc1ccc(C(=O)N3CCC(O)(c4ccc(Cl)cc4)CC3)o1)C(C)(C)CCC2(C)C [Compound 569]
53	Cc1cc2c(cc1Cc1ccc(C(=O)NCc3cccc(CNC(=O)C(Cc4ccccc4)c4ccccc4)c3)o1)C(C)(C)CCC2(C)C (stereo not shown) [Compound 613]
-4	Cc1cc2c(cc1Cc1ccc(C(=O)N(CCN(C)C)Cc3ccccc3)o1)C(C)(C)CCC2(C)C [Compound 708]
17	Cc1cc2c(cc1Cc1ccc(C(=O)N3CC(C)OC(C)C3)o1)C(C)(C)CCC2(C)C (stereo not shown) [Compound 592]
21	Cc1cc2c(cc1Cc1ccc(C(=O)N(Cc3ccccc3)Cc3ccc(Cl)c(Cl)c3)o1)C(C)(C)CCC2(C)C [Compound 696]
24	Cc1cc2c(cc1Cc1ccc(C(=O)N(CCc3ccccn3)Cc3ccccc3)o1)C(C)(C)CCC2(C)C [Compound 595]
5	Cc1cc2c(cc1Cc1ccc(C(=O)N(C)CCC3OCCO3)o1)C(C)(C)CCC2(C)C [Compound 619]
48	COc1cc2c(cc1OC)C(CC#N)N(C(=O)c1ccc(Cc3cc4c(cc3C)C(C)(C)CCC4(C)C)o1)CC2 (stereo not shown) [Compound 614]
13	Cc1cc2c(cc1Cc1ccc(C(=O)N3CCCCCCC3)o1)C(C)(C)CCC2(C)C [Compound 563]
